“And” between values parts separate entries of the source, which are not always exact repeats. Equal values may be shown once. Read-outs that look alike come from different tables or passages of the source.
Tests used:
[1] = tested on: T. brucei; assay: T. brucei growth inhibition; format: cell-based, Trypanosoma brucei; details: Trypanosoma brucei; read-out: (D) T. brucei EC50
[2] = tested on: T. cruzi; assay: T. cruzi growth inhibition; format: cell-based, Trypanosoma cruzi; details: read-out: (E) T. cruzi EC50
[3] = molecular target: MetRS (C. parvum) (Cryptosporidium parvum, UniProt Q5CVN0); assay: MetRS (C. parvum) enzyme inhibition; format: biochemical; details: read-out: (C) MetRS (C. parvum) IC50
Chain of MetRS (C. parvum) (Q5CVN0 entry or part of it): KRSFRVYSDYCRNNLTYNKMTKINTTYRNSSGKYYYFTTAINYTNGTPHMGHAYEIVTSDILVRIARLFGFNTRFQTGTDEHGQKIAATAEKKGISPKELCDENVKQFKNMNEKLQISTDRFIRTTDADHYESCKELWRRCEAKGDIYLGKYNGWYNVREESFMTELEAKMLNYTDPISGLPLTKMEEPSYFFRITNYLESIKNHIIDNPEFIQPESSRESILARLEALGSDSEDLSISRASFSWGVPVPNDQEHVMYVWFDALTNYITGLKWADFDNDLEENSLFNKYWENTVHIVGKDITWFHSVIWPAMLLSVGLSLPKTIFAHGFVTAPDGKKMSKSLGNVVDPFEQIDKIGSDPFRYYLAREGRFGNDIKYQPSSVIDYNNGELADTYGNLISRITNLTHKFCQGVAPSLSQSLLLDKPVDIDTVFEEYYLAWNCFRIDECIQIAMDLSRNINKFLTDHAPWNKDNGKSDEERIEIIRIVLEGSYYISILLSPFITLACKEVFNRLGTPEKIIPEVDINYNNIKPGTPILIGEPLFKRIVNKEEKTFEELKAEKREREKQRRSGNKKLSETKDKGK

[4] = molecular target: T1, MetRS (T. brucei) (Trypanosoma brucei brucei, UniProt Q38C91); assay: MetRS (T. brucei) enzyme inhibition; format: biochemical
T1 sequence (Q38C91 1-773): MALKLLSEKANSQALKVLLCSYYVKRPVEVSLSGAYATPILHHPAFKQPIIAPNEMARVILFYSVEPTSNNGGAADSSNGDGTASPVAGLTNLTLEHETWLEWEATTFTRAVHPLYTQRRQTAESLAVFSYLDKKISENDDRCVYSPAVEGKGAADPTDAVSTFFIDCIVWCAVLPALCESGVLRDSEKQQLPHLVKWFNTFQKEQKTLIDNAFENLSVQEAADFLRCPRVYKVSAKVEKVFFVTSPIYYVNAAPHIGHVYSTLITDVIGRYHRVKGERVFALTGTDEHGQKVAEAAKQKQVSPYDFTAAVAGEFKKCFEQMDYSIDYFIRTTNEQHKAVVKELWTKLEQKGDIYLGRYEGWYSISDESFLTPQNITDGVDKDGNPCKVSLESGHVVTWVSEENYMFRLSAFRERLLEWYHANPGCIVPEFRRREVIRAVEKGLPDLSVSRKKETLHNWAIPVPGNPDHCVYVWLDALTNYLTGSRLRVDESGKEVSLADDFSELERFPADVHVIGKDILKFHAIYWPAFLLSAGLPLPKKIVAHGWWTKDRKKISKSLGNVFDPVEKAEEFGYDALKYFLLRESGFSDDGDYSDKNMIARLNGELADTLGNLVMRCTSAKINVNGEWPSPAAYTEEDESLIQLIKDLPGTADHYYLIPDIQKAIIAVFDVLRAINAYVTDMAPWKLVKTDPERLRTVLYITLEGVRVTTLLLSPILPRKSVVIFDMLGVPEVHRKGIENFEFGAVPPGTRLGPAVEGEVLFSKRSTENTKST

EC50 [1] [nM] | EC50 ([2]; Trypanosoma cruzi) [nM] | IC50 [3] [nM] | IC50 [4] | EC50 [2] [nM] | SMILES
84 | 647 | 42.1 | < 40 nM | – | CCNC(=O)Nc1ccc(-c2ccc(OC)cc2Cl)n2cc(Cc3nc4ccc(Cl)cc4[nH]3)nc12 [Compound 2182, 1-{2-[(6-chloro-1H-1,3-benzodiazol-2-yl)methyl]-5-(2-chloro-4-methoxyphenyl)imidazo[1,2-a]pyridin-8-yl}-3-ethylurea]
257 | – | 232 | < 40 nM | – | CC(=O)Nc1nc(Cc2ccc(Cl)cc2Cl)cn1Cc1nc2ccc(Cl)cc2[nH]1 [Compound 2193, N-{1-[(6-chloro-1H-1,3-benzodiazol-2-yl)methyl]-4-[(2,4-dichlorophenyl)methyl]-1H-imidazol-2-yl}acetamide]
174 | – | 91.7 | < 40 nM | – | Clc1ccc(Cn2cnc(Cc3nc4nc(Cl)ccc4[nH]3)c2)c(Cl)c1 [Compound 2190, 4-({5-chloro-1H-imidazo[4,5-b]pyridin-2-yl}methyl)-1-[(2,4-dichlorophenyl)methyl]-1H-imidazole]
> 200 | – | 326 | < 40 nM | – | Cc1ccc(-c2cccc3nc(Cc4nc5nc(Cl)ccc5[nH]4)cn23)c(Cl)c1 [Compound 2165, 2-({5-chloro-1H-imidazo[4,5-b]pyridin-2-yl}methyl)-5-(2-chloro-4-methylphenyl)imidazo[1,2-a]pyridine]
> 2000 | – | 505 | 203 nM | – | COc1ccc(-c2cccc3c2CN(Cc2nc4nc(F)ccc4[nH]2)CC3)c(Cl)c1 [Compound 2167, 8-(2-chloro-4-methoxyphenyl)-2-((5-fluoro-1H-imidazo[4,5-b]pyridin-2-yl)methyl)-1,2,3,4-tetrahydroisoquinoline]
– | 681 | 41.7 | 72 nM and < 40 nM | 638 | COc1ccc(-c2cnc(N)c3nc(Cc4nc5nc(Cl)ccc5[nH]4)cn23)c(Cl)c1 [Compound 2175, 2-({5-chloro-1H-imidazo[4,5-b]pyridin-2-yl}methyl)-5-(2-chloro-4-methoxyphenyl)imidazo[1,2-a]pyrazin-8-amine]
> 2000 | – | 113 | 117 nM | – | COc1ccc(-c2nn(C)c3c2CN(Cc2nc4nc(Cl)ccc4[nH]2)CC3)c(Cl)c1 [Compound 2187, 5-((5-chloro-1H-imidazo[4,5-b]pyridin-2-yl)methyl)-3-(2-chloro-4-methoxyphenyl)-1-methyl-4,5,6,7-tetrahydro-1H-pyrazolo[4,3-c]pyridine]
183 | – | 76 | < 40 nM | – | COc1ccc(-c2ccc(N)c3nc(Cc4nc5cc(Cl)ccc5[nH]4)cn23)c(Cl)c1 [Compound 2179, 2-[(6-chloro-1H-1,3-benzodiazol-2-yl)methyl]-5-(2-chloro-4-methoxyphenyl)imidazo[1,2-a]pyridin-8-amine]
5660 | – | 881 | 116 nM | – | COc1ccc(-n2ccc(=O)c3cc(F)c(Cc4nc5nc(Cl)ccc5[nH]4)cc32)c(Cl)c1 [Compound 2178, 7-((5-chloro-1H-imidazo[4,5-b]pyridin-2-yl)methyl)-1-(2-chloro-4-methoxyphenyl)-6-fluoroquinolin-4(1H)-one]

The next lines start with the molecule.

SMILES | EC50 [1] [nM] | EC50 ([2]; Trypanosoma cruzi) [nM] | IC50 [3] [nM] | IC50 [4] | EC50 [2] [nM]
CSc1nc(Cc2ccc(Cl)cc2Cl)cn1Cc1nc2ccc(F)nc2[nH]1 [Compound 2104, 4-[(2,4-dichlorophenyl)methyl]-1-({5-fluoro-1H-imidazo[4,5-b]pyridin-2-yl}methyl)-2-(methylsulfanyl)-1H-imidazole] | 73.4 | 1480 | 40.3 | < 40 nM | –
CSc1nc(Cc2ccc(Cl)cc2Cl)cn1Cc1nc2nc(Cl)ccc2[nH]1 [Compound 2109, 1-({5-chloro-1H-imidazo[4,5-b]pyridin-2-yl}methyl)-4-[(2,4-dichlorophenyl)methyl]-2-(methylsulfanyl)-1H-imidazole] | 53.5 | 329 | < 40 | < 40 nM | –
CCn1c(Cc2ccc(Cl)cc2Cl)cn(Cc2nc3ccc(F)nc3[nH]2)c1=S [Compound 2103, 4-[(2,4-dichlorophenyl)methyl]-3-ethyl-1-({5-fluoro-1H-imidazo[4,5-b]pyridin-2-yl}methyl)-2,3-dihydro-1H-imidazole-2-thione] | 113 | 2930 | 175 | 63 nM | –
CCn1c(Cc2ccc(Cl)cc2Cl)cn(Cc2nc3ccccc3[nH]2)c1=O [Compound 2068, 1-[(1H-1,3-benzodiazol-2-yl)methyl]-4-[(2,4-dichlorophenyl)methyl]-3-ethyl-2,3-dihydro-1H-imidazol-2-one] | 40.2 | 1000 | < 40 | < 40 nM | –
COc1ccc(-c2cccn3cc(Cc4nc5nc(Cl)ccc5[nH]4)nc23)c(Cl)c1 [Compound 2149, 2-({5-chloro-1H-imidazo[4,5-b]pyridin-2-yl}methyl)-8-(2-chloro-4-methoxyphenyl)imidazo[1,2-a]pyridine] | > 2000 | – | > 1000 | 45 nM | –
COc1ccc(-c2cccc3c2CN(Cc2nc4nc(Cl)ccc4[nH]2)CC3)c(Cl)c1 [Compound 2161, 2-({5-chloro-1H-imidazo[4,5-b]pyridin-2-yl}methyl)-8-(2-chloro-4-methoxyphenyl)-1,2,3,4-tetrahydroisoquinoline] | 1050 | – | 252 | < 40 nM | –
CSc1ncc(Cc2ccc(Cl)cc2Cl)n1Cc1nc2nc(Cl)ccc2[nH]1 [Compound 2113, 1-({5-chloro-1H-imidazo[4,5-b]pyridin-2-yl}methyl)-5-[(2,4-dichlorophenyl)methyl]-2-(methylsulfanyl)-1H-imidazole] | 1930 | – | > 1000 | 2000 nM | –
Clc1ccc(Cc2cn(Cc3nc4nc(Cl)ccc4[nH]3)c(SCc3ccccn3)n2)c(Cl)c1 [Compound 2157, 2-({[1-({5-chloro-1H-imidazo[4,5-b]pyridin-2-yl}methyl)-4-[(2,4-dichlorophenyl)methyl]-1H-imidazol-2-yl]sulfanyl}methyl)pyridine] | > 200 | – | 107 | < 40 nM | –
COc1ccc(-c2cccc3nc(Cc4nc5nc(Cl)ccc5[nH]4)oc23)c(Cl)c1 [Compound 2162, 2-({5-chloro-1H-imidazo[4,5-b]pyridin-2-yl}methyl)-7-(2-chloro-4-methoxyphenyl)-1,3-benzoxazole] | 175 | – | 90.4 | < 40 nM | –
COc1ccc(-c2cccn3c(S(C)(=O)=O)c(Cc4nc5nc(Cl)ccc5[nH]4)nc23)c(Cl)c1 [Compound 2151, 2-({5-chloro-1H-imidazo[4,5-b]pyridin-2-yl}methyl)-8-(2-chloro-4-methoxyphenyl)-3-methanesulfonylimidazo[1,2-a]pyridine] | 364 | – | 614 | < 40 nM | –
COc1ccc(-c2cccn3c(SC)c(Cc4nc5nc(Cl)ccc5[nH]4)nc23)c(Cl)c1 [Compound 2150, 2-({5-chloro-1H-imidazo[4,5-b]pyridin-2-yl}methyl)-8-(2-chloro-4-methoxyphenyl)-3-(methylsulfanyl)imidazo[1,2-a]pyridine] | 897 | – | 468 | < 40 nM | –
